Experiments:
[1] = test system: PSN-1 (human pancreatic carcinoma); assay: In vitro evaluation, PSN-1; format: cell-based; conditions: PSN1, PSN-1, medium C, 72 hours, solvent DMSO
Description: (§1) In vitro evaluations of the compound 5'-deoxy-5'-(monofluoroethylthio) adenosine (MFETA) were performed using the materials and conditions described in Tables 9 and 10.
(§2) (a) Basal medium + RPMI 1640 + 20 mM HEPES;
(§3) B--5% NuSerum IV + 5% FCS,
(§4) *Incubation or exposure time is determined by the doubling time of the
(§5) cell line such that each is exposed to the compound for 3-4 cell

[2] = test system: Ebey (human melanoma); assay: In vitro evaluation, Ebey; format: cell-based; conditions: medium B, 72 hours
Description: as §1
(§6) ^(a) Basal medium = RPMI 1640 + 20 mM HEPES + 2 mM Lglutamine
(§7) B = 5% FCS + 5% NuSerum IV

[3] = test system: MALME (human melanoma); assay: In vitro evaluation, MALME; format: cell-based; conditions: medium B, 72 hours
Description: as §1, §6, §7

[4] = test system: L5178Y leukemic cells; assay: Antitumor effects in L5178Y leukemic mice; format: in vivo, DBA/2N mice
Description: The antitumor effects of MFETA were evaluated in DBA/2N mice (Charles River) who received i.p. transplants of 10^6 L1210 leukemic cells or 10^6 L5178Y leukemic cells on day 0 according to protocols described previously by Bernacki et al., Cancer Res. 47, 799, 1987. The increase in life span (% ILS) of treated animals relative to untreated, tumor-bearing animals was used as the measure of their therapeutic effectiveness at specified dose regimens.
^a MFETA was administered i.p. on days 1, 2, 3, 4, 5 following i.p.
implantation of 10^6 tumor cells on day 0.
^b % ILS is the percentage of increase in life span.

[5] = test system: CCRF-CEM cells (MTA phosphorylase-deficient); assay: Growth inhibition of CCRF-CEM cells; format: cell-based, human; conditions: Homo sapiens, 96 h
Description: L1210, L5178Y and MOLT-4 cell lines were grown in RPMI 1640 and 10% Nu Serum (Collaborative Research Inc., Lexington, Mass.) and CCRF-CEM cells were grown in 10% Horse Serum (Gibco Laboratories, Grand Island, N.Y.) and maintained as previously described for suspension cultures by Pera et al. in Cancer Res. 46, 1148, 1986. Cell cultures (0.3×10^5 cells/ml) were treated with each compound at 0.1 to 1000 μM to determine the concentration that inhibited growth by 50% (IC50) at 48 hr for the L1210 and L5178Y cells and at 96 hr for the CCRF-CEM and MOLT-4 cells. The incubation times allowed approximately 4 cell doublings in each cell line. All compounds were freshly prepared prior to treatment by dissolving in DMSO and diluting in serum-free media. Cells were counted by electron particle counting (Model XF' Coulter Counter; Coulter Electronics, Hialeah, Fla.).
For each compound, the concentrations required to inhibit cell growth by 50% (IC50 values) are shown in Table 7 for two murine leukemic cell lines, L1210 and L5178Y [MTA phosphorylase-deficient and MTA phosphorylase-containing, respectively] and two human leukemic cell lines, CCRF-CEM and MOLT-4 [MTA phosphorylase-deficient and MTA phosphorylase-containing, respectively]. ETA, MFETA, HETA and PTA had lower IC50 values in the L5178Y cells than in the L1210 cells. […] This differential is consistent with the possibility that, in L5178Y cells, MFETA is cleaved by MTA phosphorylase to the growth inhibitory metabolite, 5-monofluoroethylthioribose-1-phosphate (MFETR-1-P).

[6] = test system: T. b. brucei LAB 110 EATRO; assay: In vivo antitrypanosomal activity, LAB EATRO mouse infection model; conditions: 7 days, miniosmotic pump
Description: ^a Animals were treated with surgically implanted miniosmotic pumps
loaded as per manufacturers instructions with MTA, HETA or MFETA suspende

[7] = target: T1, Mouse Liver MTA Phosphorylase (Mus musculus, UniProt Q9CQ65); assay: Mouse liver MTA phosphorylase substrate/inhibitor assay; format: biochemical
T1 sequence (Q9CQ65 1-283): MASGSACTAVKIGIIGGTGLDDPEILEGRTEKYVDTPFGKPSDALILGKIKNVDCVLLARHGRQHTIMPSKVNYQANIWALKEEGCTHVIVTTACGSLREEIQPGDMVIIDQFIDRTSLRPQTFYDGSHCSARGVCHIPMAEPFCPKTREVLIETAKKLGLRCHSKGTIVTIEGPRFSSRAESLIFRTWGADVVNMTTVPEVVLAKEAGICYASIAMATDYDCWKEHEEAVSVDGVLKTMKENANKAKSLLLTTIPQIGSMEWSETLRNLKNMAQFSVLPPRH
Description: ^a MTA phosphorylase activity was assayed as described in Sufrin et

[8] = test system: MCF7 (human breast carcinoma); assay: In vitro evaluation, MCF7; format: cell-based; conditions: MCF7, medium B, 72 hours, solvent DMSO
Description: as §1, §2, §3, §4, §5

[9] = test system: HT-29 (human colon carcinoma); assay: In vitro evaluation, HT-29; format: cell-based; conditions: HT-29, medium B, 96 hours, solvent DMSO
Description: as §1, §2, §3, §4, §5

Nc1ncnc2c1ncn2[C@@H]1O[C@H](CSCCF)[C@@H](O)[C@H]1O [MFETA, 5'-deoxy-5'-(monofluoroethylthio)adenosine]
IC50 [1]: 175 µM | IC50 [2]: 442 ± 13 µM | IC50 [3]: 364 ± 13 µM | % ILS (percentage of increase in life span) ([4]; 10 mg/kg i.p. days 1-5): 12% | Mean Death Weight ([4]; 10 mg/kg i.p. days 1-5): 19.7 g | Survival Mean ± SD ([4]; 10 mg/kg i.p. days 1-5): 9.0 ± 3 days | Survival Median ([4]; 10 mg/kg i.p. days 1-5): 9 days | Survival Range ([4]; 10 mg/kg i.p. days 1-5): 8 to 10 days | % ILS (percentage of increase in life span) ([4]; 50 mg/kg i.p. days 1-5): 37% | Mean Death Weight ([4]; 50 mg/kg i.p. days 1-5): 21.6 g | Survival Mean ± SD ([4]; 50 mg/kg i.p. days 1-5): 10.0 ± 6 days | Survival Median ([4]; 50 mg/kg i.p. days 1-5): 11 days | Survival Range ([4]; 50 mg/kg i.p. days 1-5): 8 to 11 days | % ILS (percentage of increase in life span) ([4]; 100 mg/kg i.p. days 1-5): 37% | Mean Death Weight ([4]; 100 mg/kg i.p. days 1-5): 23.1 g | Survival Mean ± SD ([4]; 100 mg/kg i.p. days 1-5): 10.5 ± 4 days | Survival Median ([4]; 100 mg/kg i.p. days 1-5): 11 days | Survival Range ([4]; 100 mg/kg i.p. days 1-5): 8 to 12 days | % ILS (percentage of increase in life span) ([4]; 200 mg/kg i.p. days 1-5): 62% | Mean Death Weight ([4]; 200 mg/kg i.p. days 1-5): 20.4 g | Survival Mean ± SD ([4]; 200 mg/kg i.p. days 1-5): 12.4 ± 9 days | Survival Median ([4]; 200 mg/kg i.p. days 1-5): 13 days | Survival Range ([4]; 200 mg/kg i.p. days 1-5): 9 to 14 days | % ILS (percentage of increase in life span) ([4]; 300 mg/kg i.p. days 1-5): -75% | Mean Death Weight ([4]; 300 mg/kg i.p. days 1-5): 18.4 g | Survival Mean ± SD ([4]; 300 mg/kg i.p. days 1-5): 2.6 ± 4 days | Survival Median ([4]; 300 mg/kg i.p. days 1-5): 2 days | Survival Range ([4]; 300 mg/kg i.p. days 1-5): 2 to 4 days | IC50 [5]: 75 ± 20 µM | % Cured ([6]; 10 mg/kg/day): 0% | MSD (mean survival in days of animals dying of infection) ([6]; 10 mg/kg/day): 5.0 days | Number Cured Total ([6]; 10 mg/kg/day): 0/5 | % Cured ([6]; 25 mg/kg/day): 40% | MSD (mean survival in days of animals dying of infection) ([6]; 25 mg/kg/day): 11.6 days | Number Cured Total ([6]; 25 mg/kg/day): 2/5 | % Cured ([6]; 50 mg/kg/day): 0% | MSD (mean survival in days of animals dying of infection) ([6]; 50 mg/kg/day): 10.6 days | Number Cured Total ([6]; 50 mg/kg/day): 0/5 | % Cured ([6]; 100 mg/kg/day): 40% | MSD (mean survival in days of animals dying of infection) ([6]; 100 mg/kg/day): 12.0 days | Number Cured Total ([6]; 100 mg/kg/day): 2/5 | Ki ([7]; mouse liver MTA phosphorylase, read-out: K1): 3.1 µM | Substrate (% Control) ([7]; substrate activity relative to MTA): 64 % Control | IC50 [8]: 337 µM | IC50 [9]: 259 µM
